# According to publication PMC12645083, “Microwave‐Enhanced Synthesis of 2‐Styrylquinoline‐4‐Carboxamides With Promising Anti‐Lymphoma Activity” (Archiv Der Pharmazie, 2025):
# Tests used:
# [1] = system: panel of five tumor cell lines (HD-MB03, RPMI-8402, SU-DHL-8, A549, MDA-MB-231); assay: Antiproliferative activity, range over the panel of five tumor cell lines; assay type: cell-based; conditions: Homo sapiens; range over the active cell lines of the five-line panel; 72 h
# Description: The synthesized quinoline derivatives 4a–z and 4aa–ah were evaluated in vitro for their antiproliferative activity against a panel of five tumor cell lines (HD‐MB03, medulloblastoma; RPMI‐8402, T‐lymphoblastic leukemia; SU‐DHL‐8, B lymphocyte, large cell lymphoma; A549, non‐small cell lung cancer; MDA‐MB‐231, triple‐negative breast cancer) (Table 2). […] Replacing the 4‐Cl group with a trifluoromethyl group (4ac) reduced antiproliferative activity.
# To test the newly synthesized compounds, various human cell lines were employed. HD‐MB03 cells were purchased from DSMZ (Braunschweig, Germany), while A549, MDA‐MB‐231, RPMI‐8420, SU‐DHL‐8, TOLEDO, VL51, SU‐DHL‐1, SU‐DHL‐18, and KM‐H2 were obtained from ATCC (Manassas, VA, USA). Cells were cultured in DMEM (for MDA‐MB‐231 and A549) or RPMI‐1640 (for RPMI‐8420, SU‐DHL‐8, TOLEDO, VL51, SU‐DHL‐1, SU‐DHL‐18, KM‐H2, and HD‐MB03) media (Gibco, Milan, Italy). Both media were supplemented with 115 units/mL penicillin G (Gibco, Milan, Italy), 115 µg/mL streptomycin (Invitrogen, Milan, Italy), and 10% fetal bovine serum (Invitrogen, Milan, Italy). Peripheral blood mononuclear cells (PBMCs) were isolated from healthy donors as previously described. For cytotoxicity assays, PBMCs were resuspended at 5 × 10⁵ cells/mL in complete RPMI medium with or without 2.5 µg/mL phytohemagglutinin (PHA) (Irvine Scientific) to stimulate T‐cell activation and proliferation. All cell lines were maintained at 37°C in a humidified atmosphere containing 5% CO₂. All compounds were dissolved in DMSO at a 10 mM stock concentration. For dose–response assays, cells were seeded in 96‐well plates at densities optimized for each cell line: HD‐MB03 at 10,000 cells/well, A549 at 4000 cells/well, and MDA‐MB‐231 at 7000 cells/well. All other cell lines were seeded at 20,000 cells/well in a final volume of 100 µL per well. After 24 h, cells were treated with a 6‐point serial dilution of compounds starting from 10 µM, in triplicate for statistical analysis. Seventy‐2 h posttreatment, 10 µL of resazurin solution (100 µg/mL) was added to each well, and cells were incubated for an additional 3–6 h. Fluorescence was measured using a Spark 10 M microplate reader (Tecan Group Ltd., Männedorf, Switzerland) with excitation at 535 nm and emission at 600 nm. The IC₅₀ was defined as the concentration of compound required to inhibit cell proliferation by 50% compared to cells treated with the highest DMSO concentration.
# [2] = system: TOLEDO; assay: Cell-cycle analysis (flow cytometry); assay type: cell-based, human; conditions: 2 µM, 48 h
# Description: Cells were plated in 12‐well plates at 0.2 × 10⁶ cells/mL in 1 mL of complete medium. After 24 h, cells were treated with the specified compound concentrations. […] Cells were then stained and processed as previously described. Data acquisition was performed using a Coulter Cytomics FC500 flow cytometer (Beckman Coulter).
# [3] = system: TOLEDO; assay: EdU incorporation assay (DNA synthesis); assay type: cell-based, human; conditions: 1 and 2 µM, 48 h
# Description: (§1) For evaluation of DNA synthesis, cells were plated in 12‐well plates at 0.2 × 10⁶ cells/mL in 1 mL of complete medium. After 24 h, cells were treated with the indicated compound concentrations. EdU (5‐ethynyl‐2‐deoxyuridine) incorporation was performed according to the Baseclick EdU Flow Cytometry Kit instructions (Sigma Aldrich, St. Louis, MO, USA) as previously described. EdU‐FITC incorporation was detected using a CytoFLEX flow cytometer (Beckman Coulter, Brea, CA, USA) and analyzed with FlowJo software v.10.7.1 (BD Biosciences).
# [4] = system: VL51; assay: EdU incorporation assay (DNA synthesis); assay type: cell-based, human; conditions: 1 and 2 µM, 48 h
# Description: as §1
# [5] = system: TOLEDO; assay: Apoptosis assay, Annexin V/PI staining; assay type: cell-based, human; conditions: 2 µM, 48 h
# Description: (§2) For apoptosis evaluation, cells were plated in 12‐well plates at 0.2 × 10⁶ cells/mL in 1 mL of complete medium. After 24 h, cells were treated with the indicated compound concentrations. After 48 h, cells were harvested, centrifuged, and stained with Annexin V‐FITC and propidium iodide (PI) using the Annexin‐V Fluos kit (Roche Diagnostics), following the manufacturer's instructions. Fluorescence was analyzed using a Coulter Cytomics FC500 flow cytometer (Beckman Coulter) with detection in the FL1 and FL3 channels, respectively.
# [6] = system: VL51; assay: Apoptosis assay, Annexin V/PI staining; assay type: cell-based, human; conditions: 2 µM, 48 h
# Description: as §2
# [7] = system: TOLEDO; assay: Mitochondrial membrane potential analysis (TMRE); assay type: cell-based, human; conditions: 24 h of treatment
# Description: (§3) Cells were plated in 12‐well plates at 0.2 × 10⁶ cells/mL in 1 mL of complete medium. After 24 h, cells were treated with the indicated compound concentrations. Following a further 24‐h incubation, cells were stained with TMRE (Invitrogen, US) at 1 µM for 20 min. After washing with 1X PBS, fluorescence was detected using a CytoFLEX flow cytometer (Beckman Coulter) and analyzed with FlowJo software v.10.7.1.
# [8] = system: TOLEDO; assay: Mitochondrial ROS detection (MitoSOX); assay type: cell-based, human; conditions: 24 h of treatment
# Description: as §3, with “a” for “a further”, “treatment,” for “incubation,”, “0.5 µM MitoSOX” for “TMRE”, “US)” for “US) at 1 µM”, “with” for “with 1X”, “measured” for “detected”
# [9] = system: VL51; assay: Mitochondrial ROS detection (MitoSOX); assay type: cell-based, human; conditions: 24 h of treatment
# Description: as §3, with “a” for “a further”, “treatment,” for “incubation,”, “0.5 µM MitoSOX” for “TMRE”, “US)” for “US) at 1 µM”, “with” for “with 1X”, “measured” for “detected”
IC50 [1],SMILES,Cell-cycle distribution [2],DNA synthesis (EdU incorporation) [3],DNA synthesis (EdU incorporation) [4],Mode of cell death (Annexin V/PI) [5],Mode of cell death (Annexin V/PI) [6],Mitochondrial membrane depolarization (TMRE-negative cells) [7],Mitochondrial ROS (MitoSOX-positive cells) [8],Mitochondrial ROS (MitoSOX-positive cells) [9]
1.33 to 6.92 µM,"O=C(Nc1ccc(Cl)cc1)c1cc(/C=C/c2ccccc2[N+](=O)[O-])nc2ccccc12 [4ah, (E)-N-(4-chlorophenyl)-2-(2-nitrostyryl)quinoline-4-carboxamide]",,,,,,,,
,"O=C(Nc1ccc([N+](=O)[O-])cc1)c1cc(/C=C/c2ccccc2)nc2ccccc12 [4i, (E)-N-(4-nitrophenyl)-2-styrylquinoline-4-carboxamide]",significant accumulation of cells in the G₂/M phase,"marked, dose‐dependent reduction in DNA synthesis","marked, dose‐dependent reduction in DNA synthesis",induced late apoptosis and necrosis,induced late apoptosis and necrosis,increased percentage of TMRE‐negative cells,marked dose‐dependent increase of mitochondrial ROS,marked dose‐dependent increase of mitochondrial ROS
